In patent US8551966B2, “Chemical compounds” (priority 2011, dated 2013):
Where two headings read alike, the source gives them in different places.

What was measured:
[1] = tested on: recombinant vaccinia virus strain WR (VACV-WR) 'v3' expressing firefly luciferase, in RK13 cells; assay: microbe, parasite or virus in culture; type: cell-based; settings: for activity at 10 µM: Orthopoxvirus vaccinia, RK-13, 2 h, read-out: VV % activity at 10 μM (a)
[2] = tested on: wildtype measles virus strain WTFb in B95a marmoset B lymphocytes; assay: Measles syncytium reduction assay; type: cell-based; settings: for Measles IC100/μM (b): concentration giving total suppression of syncytia formation, B95a cells, 50 syncytium forming units per well; for potency with respect to measles virus: statement in words on Table I data
VACV-WR in BSC-1 cells = assay: microbe, parasite or virus in culture; type: cell-based, vaccinia virus; settings: read-out: VV plaque size IC50 μM (c)

CCCOCCCCCCCCCc1cc2cn([C@@H]3CC[C@H](CO)O3)c(=O)nc2o1 [Cf 3204, 3-(2′,3′-dideoxy-ribo-β-L-furanosyl)-6-propyloxynonylfuro[2,3-d]pyrimidin-2(3H)-one]
activity at 10 µM [1]: 41%

CCCCCCCCCCc1cc2cn([C@@H]3CC[C@H](CO)O3)c(=O)nc2o1 [Cf 3155, 3-(2′,3′-dideoxy-ribo-β-Lfuranosyl)-6-decylfuro[2,3-d]pyrimidin-2(3H)-one]
potency with respect to vaccinia virus compared to comparative compound Cf2095 [1]: greatly enhanced potency | activity at 10 µM [1]: 24%

CCCCCCOCCCCCCCCc1cc2cn([C@@H]3CC[C@H](CO)O3)c(=O)nc2o1 [Cf 3230, 3-(2′,3′-dideoxy-ribo-β-L-furanosyl)-6-hexyloxyoctylfuro[2,3-d]pyrimidin-2(3H)-one]
activity at 10 µM [1]: 29%

CCCCOCCCCCCCCCc1cc2cn([C@@H]3CC[C@H](CO)O3)c(=O)nc2o1 [Cf 3207, 3-(2′,3′-dideoxy-ribo-β-L-furanosyl)-6-butyloxynonylfuro[2,3-d]pyrimidin-2(3H)-one]
activity at 10 µM [1]: 29%

CCCCCOCCCCCCCCCc1cc2cn([C@@H]3CC[C@H](CO)O3)c(=O)nc2o1 [Cf 3208, 3-(2′,3′-dideoxy-ribo-β-L-furanosyl)-6-pentyloxynonylfuro[2,3-d]pyrimidin-2(3H)-one]
Measles IC100/μM (b) [2]: 1 to 5 µM | potency with respect to measles virus [2]: significant potency | IC50 (VACV-WR in BSC-1 cells; Orthopoxvirus vaccinia, BSC-1, 72 h): 0.1 µM | potency with respect to vaccinia virus compared to comparative compound Cf2095 [1]: greatly enhanced potency | activity at 10 µM [1]: 24%

COCCCCCCCCCCCCCc1cc2cn([C@@H]3CC[C@H](CO)O3)c(=O)nc2o1 [Cf 3254, 3-(2′,3′-dideoxy-ribo-β-L-furanosyl)-6-methyloxytridecylfuro[2,3-d]pyrimidin-2(3H)-one]
activity at 10 µM [1]: 59%

CCCCCCCCCc1cc2cn([C@@H]3CC[C@H](CO)O3)c(=O)nc2o1 [Cf 3175, 3-(2′,3′-dideoxy-ribo+L-furanosyl)-6-nonylfuro[2,3-d]pyrimidin-2(3H)-one]
Measles IC100/μM (b) [2]: 5 to 10 µM | potency with respect to vaccinia virus compared to comparative compound Cf2095 [1]: greatly enhanced potency | activity at 10 µM [1]: 24%

CCCCCOCCCCCCCCCc1cc2cn([C@@H]3CC[C@H](CO)O3)c(=O)nc2[nH]1 [Cf 3253, 3-(2′,3′-dideoxy-ribo-β-L-furanosyl)-6-pentyloxynonyl-pyrrolo[2,3-d]pyrimidin-2(3H)-one]
activity at 10 µM [1]: 52%

CCCCCOCCCCCCCCCc1cc2cn([C@H]3CC[C@@H](CO)O3)c(=O)nc2o1 [Cf 2095, reference compound]
Measles IC100/μM (b) [2]: Inactive | potency with respect to measles virus [2]: inactive | IC50 (VACV-WR in BSC-1 cells): 1.5 µM | VV % activity at 10 μM (a) [1]: 75%

CCCCCCCCCCCCc1cc2cn([C@@H]3CC[C@H](CO)O3)c(=O)nc2o1 [Cf 3156, 3-(2′,3′-dideoxy-ribo-β-L-furanosyl)-6-dodecylfuro[2,3-d]-pyrimidin-2(3H)-one]
activity at 10 µM [1]: 65%

CCCCCCOCCCCCCCCCc1cc2cn([C@@H]3CC[C@H](CO)O3)c(=O)nc2o1 [Cf 3209, 3-(2′,3′-dideoxy-ribo-β-L-furanosyl)-6-hexyloxynonylfuro[2,3-d]pyrimidin-2(3H)-one]
activity at 10 µM [1]: 46%

CCCCCCCCc1cc2cn([C@@H]3CC[C@H](CO)O3)c(=O)nc2o1 [Cf 3154, 3-(2′,3′-dideoxy-ribo-β-L-furanosyl)-6-octylfuro[2,3-d]pyrimidin-2(3H)-one]
potency with respect to vaccinia virus compared to comparative compound Cf2095 [1]: greatly enhanced potency | activity at 10 µM [1]: 23%

CCCCCCCCCCOCCCCc1cc2cn([C@@H]3CC[C@H](CO)O3)c(=O)nc2o1 [Cf 3231, 3-(2′,3′-dideoxy-ribo-β-L-furanosyl)-6-decyloxybutylfuro[2,3-d]pyrimidin-2(3H)-one]
activity at 10 µM [1]: 26%

CCCCc1ccc(-c2cc3cn([C@@H]4CC[C@H](CO)O4)c(=O)nc3o2)cc1 [Cf 3176, 3-(2′,3′-dideoxy-ribo-β-L-furanosyl)-6-(4-n-butylphenyl)[2,3-d]pyrimidin-2(3H)-one]
activity at 10 µM [1]: 44%

CCCCCCCc1cc2cn([C@@H]3CC[C@H](CO)O3)c(=O)nc2o1 [Cf 3174, 3-(2′,3′-dideoxy-ribo-β-L-furanosyl)-6-septylfuro[2,3-d]pyrimidin-2(3H)-one]
activity at 10 µM [1]: 41%

CCCCCCc1cc2cn([C@@H]3CC[C@H](CO)O3)c(=O)nc2o1 [Cf 3153, 3-(2′,3′-dideoxy-ribo-β-L-furanosyl)-6-hexylfuro[2,3-d]pyrimidin-2(3H)-one]
activity at 10 µM [1]: 50%

CCCCCOCCCCCCCCCc1cc2cn([C@@H]3CC[C@H](CO)O3)c(=O)nc2n1C [Cf 3242, 3-(2′,3′-dideoxy-ribo-β-L-furanosyl)-6-pentyloxynonyl-N-methyl-pyrrolo[2,3-d]pyrimidin-2(3H)-one]
Measles IC100/μM (b) [2]: 5 to 10 µM | potency with respect to vaccinia virus compared to comparative compound Cf2095 [1]: greatly enhanced potency | activity at 10 µM [1]: 15%

CCCCCc1ccc(-c2cc3cn([C@@H]4CC[C@H](CO)O4)c(=O)nc3o2)cc1 [Cf 3177, 3-(2′,3′-dideoxy-ribo-D-L-furanosyl)-6-(4-n-pentylphenyl) [2,3-d]pyrimidin-2(3H)-one]
activity at 10 µM [1]: 47%

CCCCCCCCCCCCCOCc1cc2cn([C@@H]3CC[C@H](CO)O3)c(=O)nc2o1 [Cf 3232, 3-(2′,3′-dideoxy-ribo-β-L-furanosyl)-6-tridecyloxymethylfuro[2,3-d]pyrimidin-2(3H)-one]
Measles IC100/μM (b) [2]: 1 to 5 µM | potency with respect to measles virus [2]: significant potency | activity at 10 µM [1]: 45%

CCOCCCCCCCCCc1cc2cn([C@@H]3CC[C@H](CO)O3)c(=O)nc2o1 [Cf 3210, 3-(2′,3′-dideoxy-ribo-O-L-furanosyl)-6-ethyloxynonylfuro[2,3-d]pyrimidin 2(3H)-one]
activity at 10 µM [1]: 72%
